# Reference: PubChem BioAssay (NCI)
#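 Test compounds were applied to cells in 96-well plates for 48 hours at 5 doses. Abbreviation: GI50, concentration required for 50% inhibition of growth. Definition used: TGI = concentration required for complete inhibition of growth.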
# What was measured:
# Assay in all cases: NCI anticancer screen, dose series, 48 h
# IGROV1 ovarian = tested on: IGROV1 ovarian
# KM12 colon = tested on: KM12 colon
# SK-MEL-2 melanoma = tested on: SK-MEL-2 melanoma
# NCI-H226 lung = tested on: NCI-H226 lung
# HCT-15 colon = tested on: HCT-15 colon
# SNB-75 CNS = tested on: SNB-75 CNS
# MDA-MB-231 breast = tested on: MDA-MB-231 breast
# MCF7 breast = tested on: MCF7 breast
# DU-145 prostate = tested on: DU-145 prostate
# HS 578T breast = tested on: HS 578T breast
Structure (SMILES),TGI (IGROV1 ovarian),TGI (KM12 colon),TGI (SK-MEL-2 melanoma),TGI (NCI-H226 lung),TGI (HCT-15 colon),TGI (SNB-75 CNS),GI50 (IGROV1 ovarian),GI50 (MDA-MB-231 breast),TGI (MDA-MB-231 breast),GI50 (KM12 colon),GI50 (SK-MEL-2 melanoma),GI50 (MCF7 breast),TGI (MCF7 breast),GI50 (NCI-H226 lung),GI50 (DU-145 prostate),TGI (DU-145 prostate),GI50 (HS 578T breast),TGI (HS 578T breast),GI50 (HCT-15 colon)
O=C1/C=C(/c2ccc(O)cc2)[C@H](O)Cc2ccc(OC3OC(CO)C(O)C(O)C3O)cc2O1 (stereo not given in full) (tested in a mixture with another compound),> 100 µM,> 100 µM,> 100 µM,> 100 µM,> 100 µM,–,–,–,–,–,–,–,–,–,–,–,–,–,–
Cc1cc(C)c(-c2noc(-c3ccc(Cl)cc3)c2C2=NCCN2)c(C)c1,76.7 µM,54 µM,43.8 µM,68.3 µM,57.4 µM,37.3 µM,–,–,–,–,–,–,–,–,–,–,–,–,–
Cn1c(=O)c(C2c3ccccc3Oc3c2c(=O)n(C)c2ccccc32)c(O)c2ccccc21 (stereo not given),> 100 µM,> 100 µM,> 100 µM,> 100 µM,> 100 µM,> 100 µM,–,–,–,–,–,–,–,–,–,–,–,–,–
O=C(Nc1ccc(Cl)cc1Cl)c1c/c(=N\O)c2ccc(O)cc2o1,> 100 µM,> 100 µM,–,> 100 µM,> 100 µM,> 100 µM,–,–,–,–,–,–,–,–,–,–,–,–,–
COc1ccc(OC)c(-c2cc(-c3ccc(Cl)cc3)nn2-c2ccc(S(N)(=O)=O)cc2)c1,> 100 µM,21.2 µM,> 100 µM,26.1 µM,10.7 µM,–,21.6 µM,6.05 µM,19 µM,5.16 µM,35.1 µM,3.9 µM,26.2 µM,11.4 µM,12.1 µM,25.9 µM,21.9 µM,63.1 µM,2.84 µM
COc1ccccc1NC(=O)CC(=O)NNCC(=O)Nc1nc(-c2ccccc2)cs1,> 100 µM,> 100 µM,–,> 100 µM,–,> 100 µM,–,–,–,–,–,–,–,–,–,–,–,–,–
CCCCc1c2c(nc3c1CCc1cc(C=O)c(N)nc1-3)/C(=C/c1ccccc1)CCC2,> 100 µM,> 100 µM,> 100 µM,> 100 µM,> 100 µM,> 100 µM,–,–,–,–,–,–,–,–,–,–,–,–,–
N#CC1(Cc2ccccc2Cl)c2ccccc2C=CN1C(=O)c1ccccc1 (stereo not given),> 100 µM,> 100 µM,> 100 µM,> 100 µM,> 100 µM,> 100 µM,–,–,–,–,–,–,–,–,–,–,–,–,–
CCCCCCCCOCC(O)COC (stereo not given),> 100 µM,–,–,> 100 µM,> 100 µM,–,–,–,–,–,–,–,–,–,–,–,–,–,–
Cc1cc(CC(O)(C(F)(F)F)C(F)(F)F)cc(CC(O)(C(F)(F)F)C(F)(F)F)n1,11.2 µM,5.13 µM,5.45 µM,8.13 µM,12.6 µM,6.58 µM,–,–,6.84 µM,–,–,–,–,–,–,7.94 µM,–,8.23 µM,–
COC(=O)C1=C(O)C(C(=O)OC)[C@@]2(O)[C@@H](C(=O)OC)C(c3ccc(OC(=O)C(Cc4ccccc4)NC(C)=O)cc3)C[C@@H]1[C@@H]2C(=O)OC (stereo not given in full),> 100 µM,41.3 µM,> 100 µM,75.1 µM,28.4 µM,–,45.7 µM,21 µM,58.8 µM,15.3 µM,47.4 µM,17 µM,95.3 µM,25.5 µM,–,–,20.4 µM,75.3 µM,13.3 µM
CC(C)CCC[C@@H](C)C1CCC2[C@@H]3CC=C4C[C@@H](OC(=O)CCC(=O)NCC[N+](C)(C)CCCS(=O)(=O)[O-])CC[C@]4(C)C3CC[C@@]21C (stereo not given in full),–,37.9 µM,34.9 µM,50.5 µM,29.5 µM,44.9 µM,–,–,–,–,–,–,–,–,–,–,–,–,–
CCOC(=O)C(=C=Cc1cccs1)C(=O)c1ccccc1,34.6 µM,24.7 µM,33.4 µM,32.7 µM,30.1 µM,29.8 µM,–,–,–,–,–,–,–,–,–,–,–,–,–
